{"source": "patent EP3083561B1", "about": "“HETEROARYL LINKED QUINOLINYL MODULATORS OF RORYT” (Janssen Pharmaceutica NV, priority 2013, dated 2015)", "key": {"human RORγt LBD": {"target": "T1, human RORγt LBD (Homo sapiens, UniProt P51449)", "T1 construct": "expressed in transfected cells", "T1 sequence (P51449 258-518)": "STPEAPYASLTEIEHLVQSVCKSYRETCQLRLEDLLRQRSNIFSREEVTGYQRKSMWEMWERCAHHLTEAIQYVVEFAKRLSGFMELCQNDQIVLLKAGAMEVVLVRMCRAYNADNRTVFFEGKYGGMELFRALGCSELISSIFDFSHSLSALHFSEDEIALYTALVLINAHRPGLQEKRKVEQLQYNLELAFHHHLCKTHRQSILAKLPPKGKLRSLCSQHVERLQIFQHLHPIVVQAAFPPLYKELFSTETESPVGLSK", "assay": "RORγt reporter assay (GAL4-RORγt LBD luciferase in HEK293T cells)", "type": "cell-based", "conditions": "for IC50: 24 hours compound treatment; for inhibition at 6 µM: HEK-293T", "description": "A reporter assay was used to test functional activity of RORγt modulatory compounds on transcriptional activation driven by the RORγt LBD. Cells used in the assay were co-transfected with two constructs. The first construct, pBIND-RORγt LBD, contained the wild type human RORγt LBD fused to the DNA binding domain of the GAL4 protein. The second construct, pGL4.31 (Promega Cat no. C935A), contained multiple GAL4 responsive DNA elements upstream of firefly luciferase. […] The mutant construct was called pBIND-RORγt-AF2.\nThe pBIND vector contains the GAL4 DNA Binding Domain (GAL4 DBD) and the renilla luciferase gene under control of the SV40 promoter. Renilla luciferase expression serves as a control for transfection efficiency and cell viability.\nThe reporter assay was performed by transiently transfecting HEK293T cells with 5 µg of pBIND-RORγt LBD or pBIND-RORγt LBD-AF2 and 5 µg pGL4.31 (Promega Cat no. C935A) using Fugene 6 (Invitrogen Cat no. E2691) at a 1:6 ratio of DNA: Fugene 6 in a T-75 flask in which cells were at least 80% confluent. Twenty four hours after bulk transfection, cells were plated into 96-well plates at 50,000 cells/well in phenol-red free DMEM containing 5% Lipid Reduced FCS and Pen/Strep. Six hours after plating, cells were treated with compounds for 24 hours. Media was removed and cells were lysed with 50 µL 1x Glo Lysis Buffer (Promega). Dual Glo Luciferase Reagent (50 µL/well) was then added and firefly luciferase luminescence was read on an Envision after a ten minute incubation. Finally, Stop and Glo reagent (50 µL/well) was added and renilla luciferase luminescence was read on an Envision after a ten minute incubation. To calculate the effect of compounds on RORγt activity, the ratio of firefly to renilla luciferase was determined and plotted against compound concentration. Agonist compounds increase RORγt-driven luciferase expression, and antagonist or inverse agonist compounds decrease luciferase expression."}, "[1]": {"system": "IL-17 production by CD4 T cells", "assay": "Human Th17 assay (IL-17 production by CD4 T cells)", "type": "cell-based", "conditions": "CD4+ T cells from healthy donors, Th17 differentiation, 3 days", "description": "The human Th17 assay tests the effect of RORγt modulatory compounds on IL-17 production by CD4 T cells under conditions which favor Th17 differentiation. Total CD4^+ T cells were isolated from the peripheral blood mononuclear cells (PBMC) of healthy donors using a CD4^+ T cell isolation kit II, following the manufacturer's instructions (Miltenyi Biotec). Cells were resuspended in a medium of RPMI-1640 supplemented with 10% fetal bovine serum, penicillin, streptomycin, […], and β-mercaptoethanol and were added to 96-well plates at 1.5x10^5 per 100 µL per well. 50 µL of compound at titrated concentrations in DMSO were added into each well at final DMSO concentration at 0.2%. Cells were incubated for 1 hour, then 50 µL of Th17 cell differentiation medium was added to each well. The final concentrations of antibodies and cytokines (R&D Systems) in differentiation medium were: 3x10^6/mL anti-CD3/CD28 beads (prepared using human T cell activation/expansion kit, Miltenyi Biotec), 10 µg/mL anti-IL4, 10 µg/mL anti-IFNγ, 10 ng/mL IL1β, 10 ng/mL IL23, 50 ng/mL IL6, 3 ng/mL TGFβ and 20 U/mL IL2. Cells were cultured at 37 °C and 5% CO2 for 3 days. Supernatants were collected and the accumulated IL-17 in culture was measured by using MULTI-SPOT® Cytokine Plate following manufacture's instruction (Meso Scale Discovery). The plate was read using Sector Imager 6000, and IL-17 concentration was extrapolated from the standard curve. The IC50s were determined by GraphPad."}, "[2]": {"target": "T2, human RORγt ligand binding domain (RORγt LBD) (Homo sapiens, UniProt P51449)", "T2 construct": "made in house; host or cells: E. coli (pHIS1, modified pET vector)", "T2 sequence (P51449 258-518)": "T1 sequence (P51449 258-518)", "assay": "RORγt ThermoFluor assay (thermal shift binding affinity)", "conditions": "0.065 mg/mL RORγt, pH 7.0; estimated from thermal shift", "method": "This approach is applicable to a wide variety of systems, and rigorous in theoretical interpretation through quantitation of equilibrium binding constants (KD).\nThe shift in the melting point described as a ΔTm is proportional to the concentration and affinity of the ligand. The compound potency may be compared as a rank order of either ΔTm values at a single compound concentration or in terms of KD values, estimated from concentration response curves.\nThermoFluor® experiments were carried out using instruments owned by Janssen Research and Discovery, L.L.C. through its acquisition of 3-Dimensional Pharmaceuticals, Inc. 1,8-ANS (Invitrogen) was used as a fluorescent dye. Protein and compound solutions are dispensed into black 384-well polypropylene PCR microplates (Abgene) and overlayed with silicone oil (1 µL, Fluka, type DC 200) to prevent evaporation.\nBar-coded assay plates are robotically loaded onto a thermostatically controlled PCR-type thermal block and then heated at a typical ramp-rate of 1 °C/min for all experiments. Fluorescence was measured by continuous illumination with UV light (Hamamatsu LC6) supplied via fiber optic and filtered through a band-pass filter (380-400 nm; >6 OD cutoff). Fluorescence emission of the entire 384-well plate was detected by measuring light intensity using a CCD camera (Sensys, Roper Scientific) filtered to detect 500 ± 25 nm, resulting in simultaneous and independent readings of all 384 wells. Images were collected at each temperature, and the sum of the pixel intensity in a given area of the assay plate was recorded versus temperature. Reference wells contained RORγt without compounds, and the assay conditions were as follows: • 0.065 mg/mL RORyt • 60 µM 1,8-ANS • 100 mM Hepes, pH 7.0 • 10 mM NaCl • 2.5 mM GSH • 0.002% Tween-20\nProject compounds were arranged in a pre-dosed mother plate (Greiner Bio-one) wherein compounds are serially diluted in 100% DMSO by 1:2 from a high concentration of 10 mM over 12 columns within a series (column 12 is a reference well containing DMSO, no compound). The compounds were robotically dispensed directly into assay plates (1x = 46 nL) using a Hummingbird capillary liquid handling instrument (Digilab). Following compound dispense, protein and dye in buffer was added to achieve the final assay volume of 3 µL, followed by 1 µL of silicone oil."}}, "note": "Where a name gives a salt, the structure may show the parent alone.", "data": [{"smiles": "CCN(CC)c1nc2ccc(C(O)(c3ccccn3)c3cncn3C)cc2c(C#N)c1Oc1ccccc1", "note": "(stereo not shown) [Example 5b]", "values": [{"measurement": "IC50", "setting": "human RORγt LBD", "result": 870, "unit": "nM"}, {"measurement": "inhibition at 6 µM", "setting": "human RORγt LBD", "result": 102, "unit": "%"}]}, {"smiles": "Cn1cncc1C(O)(c1ccc(C(F)(F)F)nc1)c1ccc2nc(N3CCCC3)c(Oc3ccc(C#N)cc3)c(Cl)c2c1", "note": "(stereo not shown) [Example 2c]", "values": [{"measurement": "IC50", "setting": "[1]", "result": 100, "unit": "nM"}]}, {"smiles": "Cn1cncc1C(O)(c1ccc(C(F)(F)F)nc1)c1ccc2nc(N3CCCC3)c(Oc3ccc(C#N)cc3)c(Cl)c2c1", "note": "(stereo not shown) [Example 2b]", "values": [{"measurement": "IC50", "setting": "[1]", "result": 320, "unit": "nM"}]}, {"smiles": "CC(C)OC1CN(c2nc3ccc(C(O)(c4ccc(C(F)(F)F)nc4)c4cncn4C)cc3c(Cl)c2Oc2ccc(Cl)cc2)C1", "note": "(stereo not shown) [Example 6, (4-Chloro-3-(4-chlorophenoxy)-2-(3-isopropoxyazetidin-1-yl)quinolin-6-yl)(1-methyl-1H-imidazol-5-yl)(6-(trifluoromethyl)pyridin-3-yl)methanol]", "values": [{"measurement": "IC50", "setting": "human RORγt LBD", "result": "> 6000", "unit": "nM"}, {"measurement": "inhibition at 6 µM", "setting": "human RORγt LBD", "result": 41, "unit": "%"}, {"measurement": "Kd", "setting": "[2]", "result": 11000, "unit": "nM"}]}, {"smiles": "CC(C)(C)OC(=O)N(c1ccccc1)c1c(Cl)nc2ccc(C(O)(c3cccnc3)c3cccc(Cl)c3)cc2c1Cl", "note": "(stereo not shown) [Example 7, tert-Butyl (2,4-dichloro-6-((3-chlorophenyl)(hydroxy)(pyridin-3-yl)methyl)quinolin-3-yl)(phenyl)carbamate]", "values": [{"measurement": "inhibition at 6 µM", "setting": "human RORγt LBD", "result": 72, "unit": "%"}]}, {"smiles": "Cn1cncc1C(O)(c1ccc(C(F)(F)F)nc1)c1ccc2nc(N3CCCC3)c(Oc3ccc(C#N)cc3)c(Cl)c2c1", "note": "(racemic) [Example 2a, 4-((4-Chloro-6-(hydroxy(1-methyl-1H-imidazol-5-yl)(6-(trifluoromethyl)pyridin-3-yl)methyl)-2-(pyrrolidin-1-yl)quinolin-3-yl)oxy)benzonitrile]", "values": [{"measurement": "IC50", "setting": "[1]; Homo sapiens, CD4+ T, 72 h", "result": 88, "unit": "nM"}]}, {"smiles": "CCN(CC)c1nc2ccc(C(O)(c3ccccn3)c3cncn3C)cc2c(C#N)c1Oc1ccccc1", "note": "(single isomer, unassigned) [Example 5c]", "values": [{"measurement": "IC50", "setting": "[1]; Homo sapiens, 72 h", "result": 150, "unit": "nM"}, {"measurement": "IC50", "setting": "human RORγt LBD", "result": 270, "unit": "nM"}, {"measurement": "Kd", "setting": "[2]", "result": "> 63000", "unit": "nM"}]}, {"smiles": "CCN(CC)c1nc2ccc(C(O)(c3ccccn3)c3cncn3C)cc2c(Cl)c1Oc1ccccc1", "note": "(stereo not shown) [Example 3b]", "values": [{"measurement": "IC50", "setting": "[1]; Homo sapiens, 72 h", "result": 180, "unit": "nM"}, {"measurement": "IC50", "setting": "human RORγt LBD", "result": 200, "unit": "nM"}, {"measurement": "inhibition at 6 µM", "setting": "human RORγt LBD", "result": 101, "unit": "%"}, {"measurement": "Kd", "setting": "[2]", "result": 140, "unit": "nM"}]}, {"smiles": "CCN(CC)c1nc2ccc(C(O)(c3ccccn3)c3cncn3C)cc2c(Cl)c1Oc1ccccc1", "note": "(stereo not shown) [Example 3c]", "values": [{"measurement": "IC50", "setting": "human RORγt LBD", "result": 1100, "unit": "nM"}, {"measurement": "Kd", "setting": "[2]", "result": 460, "unit": "nM"}]}, {"smiles": "Cn1cncc1C(O)(c1ccc(Cl)cc1)c1ccc2nc(N3CCC3=O)c(Oc3ccc(C#N)cc3)c(Cl)c2c1", "note": "(stereo not shown) [Example 1, 4-((4-chloro-6-((4-chlorophenyl)(hydroxy)(1-methyl-1H-imidazol-5-yl)methyl)-2-(2-oxoazetidin-1-yl)quinofin-3-yl)oxy)benzonitrile · TFA]", "values": [{"measurement": "IC50", "setting": "[1]; Homo sapiens, 72 h", "result": 300, "unit": "nM"}, {"measurement": "IC50", "setting": "human RORγt LBD", "result": 180, "unit": "nM"}, {"measurement": "inhibition at 6 µM", "setting": "human RORγt LBD", "result": 101, "unit": "%"}, {"measurement": "Kd", "setting": "[2]", "result": 58, "unit": "nM"}]}]}
